“And” between values parts separate entries of the source, which are not always exact repeats. Equal entries are not always repeated.
System: NCI-H1876 tumor spheroid viability
Assay: Anticancer human tumor NCI-H1876 cell line growth inhibition;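 also: spheroids exposed to compounds for seven days before the viability read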;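 as to viability, T/C: percent of DMSO vehicle control viability so 100% = vehicle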
Settings: spheroids with HUVEC and MSC; for viability, T/C: stronger effect = lower value
How it was run: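 Complex spheroids of malignant cells with endothelial cells and mesenchymal stem cells; agents alone or combined, from near clinical Cmax (or 10 microM if unknown) down in half-log steps, 0.25% DMSO final.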

[1] = curve of first compound, second compound 30 pM
[2] = curve of first compound, second compound 94.9 pM
[3] = curve of first compound, second compound 0.0003 µM
[4] = curve of first compound, second compound 0.000949 µM
[5] = curve of first compound, second compound 0.003 µM

Work on `Cc1cc(C)c(CNC(=O)c2cc(-c3ccc(CN4CCOCC4)cc3)cc3c2cnn3C2CCCC2)c(=O)[nH]1` + COc1cc2c(cc1O)CCNC21CSC2c3c(OC(C)=O)c(C)c4c(c3C(COC1=O)N1C(O)C3Cc5cc(C)c(OC)c(O)c5C(C21)N3C)OCO4 yielded an IC50 [1] of over 10 µM, an IC50 [2] of over 10 µM and an IC50 [3] of under 0.0316 µM. For the same compound, the IC50 [4] was under 0.0316 µM, the IC50 [5] was under 0.0316 µM and the viability, T/C (second compound 30 pM, first compound 0.0316 µM) was 103%. For the same compound, the viability, T/C (second compound 30 pM, first compound 0.1 µM) was 101%, the viability, T/C (second compound 30 pM, first compound 0.316 µM) was 104% and the viability, T/C (second compound 30 pM, first compound 1 µM) was 104%. It also gave a viability, T/C (second compound 30 pM, first compound 3.16 µM) of 104%, a viability, T/C (second compound 30 pM, first compound 10 µM) of 85.3% and a viability, T/C (second compound 94.9 pM, first compound 0.0316 µM) of 93.1%. The viability, T/C (second compound 94.9 pM, first compound 0.1 µM) was 94.2%, the viability, T/C (second compound 94.9 pM, first compound 0.316 µM) was 94.1% and the viability, T/C (second compound 94.9 pM, first compound 1 µM) was 91.5%. It also gave a viability, T/C (second compound 94.9 pM, first compound 3.16 µM) of 93.2%, a viability, T/C (second compound 94.9 pM, first compound 10 µM) of 63.8% and a viability, T/C (second compound 0.0003 µM, first compound 0.0316 µM) of 29.7%. For the same compound, the viability, T/C (second compound 0.0003 µM, first compound 0.1 µM) was 33.7%, the viability, T/C (second compound 0.0003 µM, first compound 0.316 µM) was 34.9% and the viability, T/C (second compound 0.0003 µM, first compound 1 µM) was 27.2%. For the same compound, the viability, T/C (second compound 0.0003 µM, first compound 3.16 µM) was 28.6%, the viability, T/C (second compound 0.0003 µM, first compound 10 µM) was 17.4% and the viability, T/C (second compound 0.000949 µM, first compound 0.0316 µM) was 2.79%. For the same compound, the viability, T/C (second compound 0.000949 µM, first compound 0.1 µM) was 5.13%, the viability, T/C (second compound 0.000949 µM, first compound 0.316 µM) was 3.54% and the viability, T/C (second compound 0.000949 µM, first compound 1 µM) was 3.83%. The viability, T/C (second compound 0.000949 µM, first compound 3.16 µM) was 3.88%, the viability, T/C (second compound 0.000949 µM, first compound 10 µM) was 4.21% and the viability, T/C (second compound 0.003 µM, first compound 0.0316 µM) was 0.62%. For the same compound, the viability, T/C (second compound 0.003 µM, first compound 0.1 µM) was 0.99%, the viability, T/C (second compound 0.003 µM, first compound 0.316 µM) was 0.83% and the viability, T/C (second compound 0.003 µM, first compound 1 µM) was 1.17%. The viability, T/C (second compound 0.003 µM, first compound 3.16 µM) was 0.68% and the viability, T/C (second compound 0.003 µM, first compound 10 µM) was 0.88%.
Work on `Cc1sc2c(c1C)C(c1ccc(Cl)cc1)=NC(CC(=O)Nc1ccc(O)cc1)c1nnc(C)n1-2` (centres undefined) + COc1cc2c(cc1O)CCNC21CSC2c3c(OC(C)=O)c(C)c4c(c3C(COC1=O)N1C(O)C3Cc5cc(C)c(OC)c(O)c5C(C21)N3C)OCO4 yielded an IC50 [1] of 0.265 µM, an IC50 [2] of 0.148 µM and an IC50 [3] of under 0.00949 µM. The IC50 [4] was under 0.00949 µM, the IC50 [5] was under 0.00949 µM and the viability, T/C (second compound 30 pM, first compound 0.00949 µM) was 104%. It also gave a viability, T/C (second compound 30 pM, first compound 0.03 µM) of 108%, a viability, T/C (second compound 30 pM, first compound 0.0949 µM) of 104% and a viability, T/C (second compound 30 pM, first compound 0.3 µM) of 43.3%. The viability, T/C (second compound 30 pM, first compound 0.949 µM) was 17.1%, the viability, T/C (second compound 30 pM, first compound 3 µM) was 8.32% and the viability, T/C (second compound 94.9 pM, first compound 0.00949 µM) was 100%. It also gave a viability, T/C (second compound 94.9 pM, first compound 0.03 µM) of 95.4%, a viability, T/C (second compound 94.9 pM, first compound 0.0949 µM) of 60.6% and a viability, T/C (second compound 94.9 pM, first compound 0.3 µM) of 30.8%. The viability, T/C (second compound 94.9 pM, first compound 0.949 µM) was 9.48%, the viability, T/C (second compound 94.9 pM, first compound 3 µM) was 5.87% and the viability, T/C (second compound 0.0003 µM, first compound 0.00949 µM) was 29.3%. It also gave a viability, T/C (second compound 0.0003 µM, first compound 0.03 µM) of 23.2%, a viability, T/C (second compound 0.0003 µM, first compound 0.0949 µM) of 22.7% and a viability, T/C (second compound 0.0003 µM, first compound 0.3 µM) of 4.78%. For the same compound, the viability, T/C (second compound 0.0003 µM, first compound 0.949 µM) was 2.87%, the viability, T/C (second compound 0.0003 µM, first compound 3 µM) was 3.05% and the viability, T/C (second compound 0.000949 µM, first compound 0.00949 µM) was 3.88%. It also gave a viability, T/C (second compound 0.000949 µM, first compound 0.03 µM) of 2.86%, a viability, T/C (second compound 0.000949 µM, first compound 0.0949 µM) of 1.98% and a viability, T/C (second compound 0.000949 µM, first compound 0.3 µM) of 2.62%. It also gave a viability, T/C (second compound 0.000949 µM, first compound 0.949 µM) of 1.67%, a viability, T/C (second compound 0.000949 µM, first compound 3 µM) of 2.3% and a viability, T/C (second compound 0.003 µM, first compound 0.00949 µM) of 0.46%. The viability, T/C (second compound 0.003 µM, first compound 0.03 µM) was 0.43%, the viability, T/C (second compound 0.003 µM, first compound 0.0949 µM) was 0.51% and the viability, T/C (second compound 0.003 µM, first compound 0.3 µM) was 0.57%. It also gave a viability, T/C (second compound 0.003 µM, first compound 0.949 µM) of 0.25% and a viability, T/C (second compound 0.003 µM, first compound 3 µM) of 0.65%.
In the case of `Cn1nnc2c(C(N)=O)ncn2c1=O`, the viability, T/C (compound 1 µM) is reported as 95% [middle of 10 runs], the viability, T/C (compound 3.16 µM) is reported as 103% [middle of 10 runs] and the viability, T/C (compound 10 µM) is reported as 99.7% [middle of 10 runs]. The IC50 (compound alone, run of 11/07/2019) was > 100 µM and 19.1 µM and 92 µM.

Reference: PubChem BioAssay AID1845207 (Molecular Pharmacology Branch, DTP, NCI, 2023)
